How the values were obtained:
AB1-HA tumor model = conditions: CTX treatment at Day 9; cited from earlier work
MEK1 = MEK1 (Homo sapiens, UniProt Q02750); conditions: cited from earlier work
ERK1 or ERK2 = conditions: cited from earlier work
pMel-1 CD8^+ T-cells [1] = assay: Antigen re-challenge (recall response) of activated CD8+ T-cells; assay type: cell-based, mouse; conditions: re-challenge with gp100 peptide 72 hrs; vs untreated
From the text: FIGS. 4A-4C show FACS analysis of memory phenotype of activated cells (gp100 vs gp100 +MEKi) after antigen (Ag) re-challenge with gp100 peptide for 72 hrs. […]. FIGS. 4M-4O show the scheme of ACT of B16 tumor-bearing mice with respectively activated CD8^+ T-cells as indicated FIG. 4M, estimation of tumor volume FIG. 4N and percent survival FIG. 4O in treated groups. FIGS. 4P-4R show the estimation of numbers of adoptively transferred cells in spleens of treated mice 30 days after ACT as indicated. For the untreated (UT) and control (CTX) groups where the endpoint for euthanasia was reached earlier, the mice were sacrificed and spleens harvested and stored as single-cell suspensions at −80° C. At the end of the study, all samples were stained and processed together for FACS analysis. Representative of two experiments is shown. *P<0.05, **P<0.01, ***P<0.001.
Cell activation, drug treatment and adoptive transfer. FACS-sorted CD8^+ cells from pMel-1 mice were activated with gp100 peptide ([…] (SEQ ID NO:2); 1 μM/10^6 cells/mL) either alone or in combination with MEKi (500-1000 nM) in T-cell medium supplemented with 30 units of IL2 for 48 hours unless otherwise stated. In some experiments, at 48 h cells were washed and re-incubated in IL2-containing medium supplemented with gp100 and/or anti-OX40-Ab for 72 hours. […]

[2] = test system: Abl1, AKT3, c-RAF, CamK1, CDK2, c-Met; conditions: cited from earlier work
pMel-1 CD8^+ T-cells [3] = assay: In vitro activation of pMel-1 CD8+ T-cells with gp100 peptide with or without MEKi; assay type: cell-based, mouse
Method: Mice and cell culture. 4-6-week-old C57BL/6 mice (wild-type (WT) and pMel-1) from Jackson Laboratory or in-house bred pMel-1 mice with transgenic CD8^+ T-cells having TCR from melanoma-specific gp10025-33 peptide were used as outlined in various experiments. Animals had free access to water and food. All experiments were performed under protocols approved by the Augusta University Georgia Cancer Center Institutional Animal Care and Use Committee (IACUC). Cancer cell lines used in the present study included TC1 (kindly provided by Dr. T-C Wu at Johns Hopkins University) and B16-melanoma (obtained from American Type Culture Collection (ATCC)). […] Primary murine CD8^+ cells were isolated by fluorescence-activated cell sorting (FACS) and in some cases by negative selection using magnetic beads (Miltenyi Biotec) and cultured in RPMI 1640 medium supplemented with 10% FBS, 2 mM glutamine, 10 mM HEPES and 55 μM β-mercaptoethanol. […]
Flow cytometry analyses. […] TMRM (Tetramethylrhodamine, methyl ester) is a cell-permeant, cationic, red-orange fluorescent dye that is readily sequestered by active mitochondria and has been used for estimation of mitochondrial potential was used as described before (Sukumar, M., et al., Cell Metabolism, 23: 63-76 (2016)). […]
Metabolic assays. […] OCR and ECAR were measured with an XFp flux analyzer (Seahorse Bioscience). […]

Chain of MEK1 (Q02750 whole entry, species assumed): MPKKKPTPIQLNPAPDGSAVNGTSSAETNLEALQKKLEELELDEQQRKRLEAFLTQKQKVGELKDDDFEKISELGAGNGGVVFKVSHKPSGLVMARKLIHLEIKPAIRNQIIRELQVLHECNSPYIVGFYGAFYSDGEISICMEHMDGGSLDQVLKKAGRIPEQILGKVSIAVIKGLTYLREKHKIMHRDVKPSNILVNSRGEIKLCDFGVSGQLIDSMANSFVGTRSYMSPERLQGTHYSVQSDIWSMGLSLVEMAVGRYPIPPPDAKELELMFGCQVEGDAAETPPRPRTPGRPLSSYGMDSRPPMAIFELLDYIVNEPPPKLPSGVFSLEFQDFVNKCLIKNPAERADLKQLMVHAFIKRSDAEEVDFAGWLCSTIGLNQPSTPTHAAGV

O=P1(N(CCCl)CCCl)NCCCO1 (stereo not shown) [CTX, Cyclophosphamide]
cure rate (AB1-HA tumor model): 75%

COc1cccc(-c2cc(=O)c3ccccc3o2)c1N [PD98059]
MEK-1-mediated activation of MAPK (MEK1): specifically inhibits
direct inhibition of ERK1 or ERK2 (ERK1 or ERK2): does not directly inhibit

Cn1cnc2c(F)c(Nc3ccc(Br)cc3Cl)c(C(=O)NOCCO)cc21 [Selumetinib]
recall response, expansion of terminal effector cells (CD62L-CD44+) (pMel-1 CD8^+ T-cells [1]): more than 2.5 fold

Cn1c(=O)c(F)c(Nc2ccc(I)cc2F)c2c(=O)n(C[C@@H](O)CO)cnc21 [TAK-733]
activity on Abl1, AKT3, c-RAF, CamK1, CDK2, c-Met, etc. [2]: inactive

CCOC(=O)[C@@]1(CCCCCCOc2ccc(Cl)cc2)CO1 [etomoxir]
cell proliferation of MEKi-treated pMel-1 CD8+ T-cells in the presence of etomoxir (pMel-1 CD8^+ T-cells [3]): significant decrease in cell proliferation

CC[C@H]1/C=C/C=C/C[C@@H](C)[C@H](O)[C@@](C)(O)C(=O)[C@@H](C)[C@H](O)[C@@H](C)C(=O)[C@@H](C)[C@H](O)[C@@H](C)/C=C/C(=O)O[C@@H]2[C@H](C)[C@H](CC1)O[C@]1(CC[C@H](C)[C@H](C[C@@H](C)O)O1)[C@H]2C [oligomycin]
proliferation of MEKi-treated CD8+ T-cells with oligomycin (pMel-1 CD8^+ T-cells [3]; gp100 activated, MEKi-treated cells): inhibition of proliferation

From patent US20210348125A1, “INDUCED STEM MEMORY T CELLS AND METHODS OF USE THEREOF” (Augusta University Research Institute, Inc., priority 2017, published 2021)
